Measured values from PubChem BioAssay AID192 (DTP/NCI, 2004).
Several values for one entry are separate records, joined by “and”; a condition that tells them apart may be missing. Equal values may be shown once. Toxic doses and inconclusive results are not listed.

Tested on: BDF1 mice, B16 melanoma ip, median survival T/C
Test: NCI In Vivo Anticancer Drug Screen. Data for tumor model B16 Melanoma (intraperitoneal) in B6D2F1 (BDF1) mice
Details: endpoint: median survival time, higher = longer survival
Summary of the method: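 Read-out: survival or tumor size, given as treated/control ratio. Controls received vehicle only; animals bore transplantable tumors.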

[1] = dose: 12.5 mg/kg/injection, schedule: Q01DX009 (ip), vehicle: saline with Tween-80
[2] = dose: 12.5 mg/kg/injection, schedule: Q01DX009 (ip), vehicle: saline
[3] = dose: 25.0 mg/kg/injection, schedule: Q01DX009 (ip), vehicle: saline with Tween-80
[4] = dose: 25.0 mg/kg/injection, schedule: Q01DX009 (ip), vehicle: saline
[5] = dose: 25.0 mg/kg/injection, schedule: Q04DX003 (ip), vehicle: saline with Tween-80
[6] = dose: 3.12 mg/kg/injection, schedule: Q01DX009 (ip), vehicle: Klucel (hydroxypropylcellulose) (HPC)
[7] = dose: 6.25 mg/kg/injection, schedule: Q01DX009 (ip), vehicle: Klucel (hydroxypropylcellulose) (HPC)
[8] = dose: 12.5 mg/kg/injection, schedule: Q01DX009 (ip), vehicle: Klucel (hydroxypropylcellulose) (HPC)
[9] = dose: 100.0 mg/kg/injection, schedule: Q01DX009 (ip), vehicle: saline with Tween-80
[10] = dose: 50.0 mg/kg/injection, schedule: Q01DX009 (ip), vehicle: saline with Tween-80
[11] = dose: 50.0 mg/kg/injection, schedule: Q04DX003 (ip), vehicle: saline with Tween-80
[12] = dose: 100.0 mg/kg/injection, schedule: Q04DX003 (ip), vehicle: saline with Tween-80
[13] = dose: 200.0 mg/kg/injection, schedule: Q04DX003 (ip), vehicle: saline with Tween-80

C=CCN1C(=O)C=CC1=O
T/C (dose: 0.75 mg/kg/injection, schedule: Q01DX009 (ip), vehicle: saline): 102 % of control | T/C (dose: 1.5 mg/kg/injection, schedule: Q01DX009 (ip), vehicle: saline): 93 % of control

O=C1NC2C(NC(=O)N2Cl)N1Cl (stereo not given)
T/C (dose: 3.13 mg/kg/injection, schedule: Q01DX009 (ip), vehicle: saline with Tween-80): 101 % of control | T/C (dose: 6.25 mg/kg/injection, schedule: Q01DX009 (ip), vehicle: saline with Tween-80): 98 % of control | T/C [1]: 90 % of control and 98 % of control | T/C [2]: 101 % of control | T/C [3]: 86 % of control | T/C [4]: 94 % of control | T/C [5]: 105 % of control

CCCCCCC(C)NCC(O)COc1cccc(C)c1 (stereo not given)
T/C [6]: 90 % of control | T/C [7]: 94 % of control | T/C [8]: 89 % of control

Cc1cc(Cl)ccc1NC(=O)CCl
T/C [9]: 100 % of control | T/C (dose: 200.0 mg/kg/injection, schedule: Q01DX009 (ip), vehicle: saline with Tween-80): 95 % of control

CC(C)C[NH-].CC(C)C[NH-].O.O.[Cl][Pt+2][Cl]
T/C (dose: 10.0 mg/kg/injection, schedule: Q01DX009 (ip), vehicle: other): 151 % of control | T/C (dose: 30.0 mg/kg/injection, schedule: Q01DX009 (ip), vehicle: other): 160 % of control | T/C (dose: 40.0 mg/kg/injection, schedule: Q01DX009 (ip), vehicle: other): 214 % of control | T/C (dose: 50.0 mg/kg/injection, schedule: Q01DX009 (ip), vehicle: other): 169 % of control

Brc1ccc(-c2csc(Nc3nc(-c4ccc(Br)cc4)cs3)n2)cc1
T/C [1]: 105 % of control | T/C [3]: 122 % of control | T/C [5]: 97 % of control | T/C [10]: 89 % of control and 107 % of control | T/C [11]: 100 % of control | T/C [12]: 86 % of control and 94 % of control | T/C [13]: 86 % of control

COc1ccc2nc3cc(Cl)ccc3c(NCCNCCNCCNc3c4ccc(Cl)cc4nc4ccc(OC)cc34)c2c1
T/C [6]: 103 % of control | T/C [7]: 107 % of control | T/C [8]: 113 % of control | T/C [1]: 164 % of control | T/C [2]: 155 % of control | T/C (dose: 25.0 mg/kg/injection, schedule: Q01DX009 (ip), vehicle: Klucel (hydroxypropylcellulose) (HPC)): 113 % of control | T/C [3]: 160 % of control | T/C [4]: 150 % of control | T/C (dose: 50.0 mg/kg/injection, schedule: Q01DX009 (ip), vehicle: Klucel (hydroxypropylcellulose) (HPC)): 113 % of control | T/C [10]: 119 % of control | T/C [9]: 90 % of control

CC1(C)c2ccccc2C(C)(O)c2ccccc21
T/C [11]: 102 % of control | T/C [12]: 111 % of control | T/C [13]: 94 % of control

C(=P(c1ccccc1)(c1ccccc1)c1ccccc1)[P+](c1ccccc1)(c1ccccc1)c1ccccc1
T/C [6]: 111 % of control | T/C (dose: 6.25 mg/kg/injection, schedule: Q01DX009 (ip), vehicle: suspension in saline): 157 % of control

Cc1cc(C)nc(NC(N)=NCCc2ccccc2)n1
T/C [1]: 104 % of control | T/C [3]: 88 % of control | T/C [10]: 97 % of control

Cc1cccc(NC(=O)NC(C)C)c1C
T/C (dose: 100.0 mg/kg/injection, schedule: Q01DX009 (ip), vehicle: Klucel (hydroxypropylcellulose) (HPC)): 100 % of control | T/C (dose: 100.0 mg/kg/injection, schedule: Q04DX003 (ip), vehicle: Klucel (hydroxypropylcellulose) (HPC)): 103 % of control | T/C (dose: 200.0 mg/kg/injection, schedule: Q01DX009 (ip), vehicle: Klucel (hydroxypropylcellulose) (HPC)): 96 % of control | T/C (dose: 200.0 mg/kg/injection, schedule: Q04DX003 (ip), vehicle: Klucel (hydroxypropylcellulose) (HPC)): 107 % of control | T/C (dose: 400.0 mg/kg/injection, schedule: Q01DX009 (ip), vehicle: Klucel (hydroxypropylcellulose) (HPC)): 93 % of control | T/C (dose: 400.0 mg/kg/injection, schedule: Q04DX003 (ip), vehicle: Klucel (hydroxypropylcellulose) (HPC)): 100 % of control
